Reference: ChEMBL document CHEMBL1201862, “PubChem BioAssay data set” (2004)
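Exposure lasted 48 hours, with cells grown in 96-well plates and compounds tested at five concentrations. GI50: concentration for 50% inhibition of growth.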 Active and inactive are the calls of the source. Cut-off read from the data, not from the text of the source: active = GI50 up to about 1.1 µM and inactive = higher.

Legend:
Test in all cases: NCI-60 cell line screen, 48 h
A549 = tested on: A549
DLD-1 = tested on: DLD-1
HL-60 = tested on: HL-60
HOP-62 = tested on: HOP-62
IGROV-1 = tested on: IGROV-1
K562 = tested on: K562
KM-20L2 = tested on: KM-20L2
MOLT-4 = tested on: MOLT-4
NCI-H23 = tested on: NCI-H23
OVCAR-8 = tested on: OVCAR-8
SR = tested on: SR
XF498 = tested on: XF498
BT-549 = tested on: BT-549
MCF7 = tested on: MCF7
MDA-MB-231 = tested on: MDA-MB-231
MDA-MB-435 = tested on: MDA-MB-435
MDA-N = tested on: MDA-N
PC-3 = tested on: PC-3
T47D = tested on: T47D
DMS-273 = tested on: DMS-273

Structure (SMILES)	GI50 (A549)	GI50 (DLD-1)	GI50 (HL-60)	GI50 (HOP-62)	GI50 (IGROV-1)	GI50 (K562)	GI50 (KM-20L2)	GI50 (MOLT-4)	GI50 (NCI-H23)	GI50 (OVCAR-8)	GI50 (SR)	GI50 (XF498)	GI50 (BT-549)	GI50 (MCF7)	GI50 (MDA-MB-231)	GI50 (MDA-MB-435)	GI50 (MDA-N)	GI50 (PC-3)	GI50 (T47D)	GI50 (DMS-273)
OCc1nnn2c1CCC2	> 100 µM (inactive)	> 100 µM (inactive)	> 100 µM (inactive)	> 100 µM (inactive)	> 100 µM (inactive)	> 100 µM (inactive)	> 100 µM (inactive)	> 100 µM (inactive)	> 100 µM (inactive)	> 100 µM (inactive)	> 100 µM (inactive)	> 100 µM (inactive)	–	–	–	–	–	–	–	–
S=c1nc(Nc2ccc(Br)cc2)c2c3c(sc2[nH]1)CN(N1CCc2c(sc4[nH]c(=S)nc(Nc5ccc(Br)cc5)c24)C1)CC3	23 µM (inactive)	–	17.6 µM (inactive)	17.5 µM (inactive)	26.2 µM (inactive)	11.1 µM (inactive)	–	12.8 µM (inactive)	24 µM (inactive)	> 50 µM (inactive)	27.5 µM (inactive)	–	> 50 µM (inactive)	20.3 µM (inactive)	17.9 µM (inactive)	15.2 µM (inactive)	12.6 µM (inactive)	38.8 µM (inactive)	8.79 µM (inactive)	–
CCC(=O)NC(OCC1(CC)COC1)(C(F)(F)F)C(F)(F)F	–	–	> 100 µM (inactive)	> 100 µM (inactive)	–	> 100 µM (inactive)	–	> 100 µM (inactive)	> 100 µM (inactive)	–	> 100 µM (inactive)	–	> 100 µM (inactive)	> 100 µM (inactive)	> 100 µM (inactive)	> 100 µM (inactive)	> 100 µM (inactive)	–	> 100 µM (inactive)	–
O=c1cnn(CCOCP(=O)(O)O)c(=O)[nH]1	> 100 µM (inactive)	–	–	> 100 µM (inactive)	> 100 µM (inactive)	> 100 µM (inactive)	–	> 100 µM (inactive)	> 100 µM (inactive)	> 100 µM (inactive)	–	–	> 100 µM (inactive)	> 100 µM (inactive)	> 100 µM (inactive)	> 100 µM (inactive)	> 100 µM (inactive)	> 100 µM (inactive)	> 100 µM (inactive)	–
CC(=O)OCC1OC(n2cc(F)c(=O)[nH]c2=O)C(N)C(OC(C)=O)C1OC(C)=O (stereo unspecified)	> 100 µM (inactive)	> 100 µM (inactive)	> 100 µM (inactive)	> 100 µM (inactive)	> 100 µM (inactive)	> 100 µM (inactive)	> 100 µM (inactive)	> 100 µM (inactive)	> 100 µM (inactive)	> 100 µM (inactive)	–	> 100 µM (inactive)	–	> 100 µM (inactive)	–	–	–	–	–	> 100 µM (inactive)
O=C1Nc2ccccc2Nc2ccncc21	> 100 µM (inactive)	> 100 µM (inactive)	> 100 µM (inactive)	> 100 µM (inactive)	> 100 µM (inactive)	> 100 µM (inactive)	> 100 µM (inactive)	> 100 µM (inactive)	> 100 µM (inactive)	> 100 µM (inactive)	–	–	–	> 100 µM (inactive)	–	–	–	–	–	> 100 µM (inactive)
S=c1sc2cscc2s1	19.5 µM (inactive)	21 µM (inactive)	28.1 µM (inactive)	32.8 µM (inactive)	32.2 µM (inactive)	42.6 µM (inactive)	27 µM (inactive)	34.4 µM (inactive)	28.8 µM (inactive)	21.7 µM (inactive)	27.8 µM (inactive)	23.3 µM (inactive)	–	–	–	–	–	–	–	31.1 µM (inactive)
Cc1c(N2C(=O)CS(=O)(=O)C2c2cccc(Oc3ccccc3)c2)c(=O)n(-c2ccccc2)n1C (stereo unspecified)	71.8 µM (inactive)	–	14.1 µM (inactive)	33.9 µM (inactive)	46.9 µM (inactive)	24.3 µM (inactive)	–	20.5 µM (inactive)	> 100 µM (inactive)	57.3 µM (inactive)	–	–	29.5 µM (inactive)	36.9 µM (inactive)	> 100 µM (inactive)	36.9 µM (inactive)	24.8 µM (inactive)	43.3 µM (inactive)	29 µM (inactive)	–
O=C(Nc1nc2ncn(CCNCc3ccccc3)c2c(=O)[nH]1)c1ccccc1	> 100 µM (inactive)	> 100 µM (inactive)	> 100 µM (inactive)	> 100 µM (inactive)	> 100 µM (inactive)	> 100 µM (inactive)	> 100 µM (inactive)	–	–	> 100 µM (inactive)	> 100 µM (inactive)	–	–	–	–	–	–	–	–	> 100 µM (inactive)
COc1ccc2[nH]c(Cl)c(/C=C3/C(=O)Nc4cc(C)c(OC)cc43)c2c1	5.26 µM (inactive)	–	1.91 µM (inactive)	5.48 µM (inactive)	4.31 µM (inactive)	4.39 µM (inactive)	–	4.32 µM (inactive)	5.11 µM (inactive)	7.71 µM (inactive)	3.08 µM (inactive)	–	3.2 µM (inactive)	3.8 µM (inactive)	3.81 µM (inactive)	1.23 µM (inactive)	1.58 µM (inactive)	3.33 µM (inactive)	5.96 µM (inactive)	–
CCN(CC)CCNCc1cc(Cl)cc2c1OCOC2	> 10 µM (inactive)	–	> 10 µM (inactive)	> 10 µM (inactive)	> 10 µM (inactive)	> 10 µM (inactive)	–	> 10 µM (inactive)	> 10 µM (inactive)	> 10 µM (inactive)	> 10 µM (inactive)	–	–	> 10 µM (inactive)	> 10 µM (inactive)	> 10 µM (inactive)	> 10 µM (inactive)	> 10 µM (inactive)	> 10 µM (inactive)	–
CCn1cc(C(c2ccc(Cl)cc2)n2ccnc2)c2cc(Br)ccc21 (stereo unspecified)	10.4 µM (inactive)	–	–	14.4 µM (inactive)	9.31 µM (inactive)	4.85 µM (inactive)	–	1.85 µM (inactive)	14.5 µM (inactive)	10.8 µM (inactive)	4.35 µM (inactive)	–	14.8 µM (inactive)	10.1 µM (inactive)	14.8 µM (inactive)	13.6 µM (inactive)	20.1 µM (inactive)	9.55 µM (inactive)	–	–
CC(=O)OCC1=C(COC(C)=O)C(=O)c2c(O)ccc(O)c2C1=O	17.4 µM (inactive)	1.43 µM (inactive)	1.49 µM (inactive)	21 µM (inactive)	16 µM (inactive)	17.9 µM (inactive)	13.4 µM (inactive)	1.37 µM (inactive)	12.1 µM (inactive)	10.2 µM (inactive)	5.47 µM (inactive)	–	–	–	–	–	–	–	–	15.5 µM (inactive)
Cc1[nH]c(=O)[nH]c(=O)c1/C=C/C(=O)NC(CO)C[S+]([O-])C[S+](C)[O-] (stereo unspecified)	24.4 µM (inactive)	20.4 µM (inactive)	16.7 µM (inactive)	16.6 µM (inactive)	12.6 µM (inactive)	19.5 µM (inactive)	36.9 µM (inactive)	18.7 µM (inactive)	10.8 µM (inactive)	28.4 µM (inactive)	–	1.74 µM (inactive)	–	20.9 µM (inactive)	–	–	–	–	–	21 µM (inactive)
CO/N=C1/c2sccc2[C@H](NC(=O)CNC(=O)OC(C)(C)C)[C@@H]1O	> 100 µM (inactive)	–	> 100 µM (inactive)	> 100 µM (inactive)	> 100 µM (inactive)	> 100 µM (inactive)	–	> 100 µM (inactive)	> 100 µM (inactive)	> 100 µM (inactive)	> 100 µM (inactive)	–	> 100 µM (inactive)	> 100 µM (inactive)	> 100 µM (inactive)	> 100 µM (inactive)	> 100 µM (inactive)	> 100 µM (inactive)	> 100 µM (inactive)	–
C/C=C1\NC(=O)[C@H]2CSSCCC=C[C@H](CC(=O)N[C@H](C(C)C)C(=O)N2)OC(=O)[C@H](C(C)C)NC1=O	0.000148 µM (active)	0.0217 µM (active)	–	9.79e-05 µM (active)	–	–	0.00288 µM (active)	0.000134 µM (active)	0.000125 µM (active)	0.000255 µM (active)	–	0.00285 µM (active)	–	2.22e-05 µM (active)	2.43e-05 µM (active)	1e-05 µM (active)	2.17e-05 µM (active)	4.88e-05 µM (active)	4.39e-05 µM (active)	0.00673 µM (active)
O=C1CSc2sc(=S)sc2S1	50.8 µM (inactive)	> 100 µM (inactive)	> 61.5 µM (inactive)	> 100 µM (inactive)	> 100 µM (inactive)	> 100 µM (inactive)	> 100 µM (inactive)	> 100 µM (inactive)	> 100 µM (inactive)	> 100 µM (inactive)	–	> 100 µM (inactive)	–	> 100 µM (inactive)	–	–	–	–	–	95.9 µM (inactive)
CN1C(=O)CN2C(Cl)(Cl)C2(c2ccccc2)c2cc(Cl)ccc21 (stereo unspecified)	–	93.5 µM (inactive)	–	> 100 µM (inactive)	> 100 µM (inactive)	69.2 µM (inactive)	> 100 µM (inactive)	26.9 µM (inactive)	89.1 µM (inactive)	> 100 µM (inactive)	> 10 µM (inactive)	–	–	–	–	–	–	–	–	87.7 µM (inactive)
CN(C)c1ccc(/C=N/c2ccc(Oc3ccc(Cl)cc3)c(Cl)c2)cc1	18.7 µM (inactive)	–	11.7 µM (inactive)	18.7 µM (inactive)	21.7 µM (inactive)	–	–	18.5 µM (inactive)	19 µM (inactive)	17.5 µM (inactive)	10.9 µM (inactive)	–	16.6 µM (inactive)	42.7 µM (inactive)	16.5 µM (inactive)	24.2 µM (inactive)	21.7 µM (inactive)	15.2 µM (inactive)	16.8 µM (inactive)	–
